Read-outs that look alike come from different tables or passages of the source.
Columns and labels:
[1] = tested on: Pigweed (redroot) (Amaranthus retroflexus); assay: Preemergence herbicidal activity, soil spray; assay type: in vivo; settings: Amaranthus retroflexus, pre-emergence, 504 h, Table 5, visual score after 3 weeks, read-out: Pre-emergent % control AMARE
From the text: (§1) Seeds of the desired test plant species were planted in a soil matrix prepared by mixing a loam soil (43 percent silt, 19 percent clay, and 38 percent sand, with a pH of about 8.1 and an organic matter content of about 1.5 percent) and sand in a 70 to 30 ratio. The soil matrix was contained in plastic pots with a surface area of 113 square centimeters. When required to ensure good germination and healthy plants, a fungicide treatment and/or other chemical or physical treatment was applied. A weighed amount, determined by the highest rate to be tested, of each test compound was placed in a 20 mL glass vial and was dissolved in 4 mL of a 97:3 v/v (volume/volume) mixture of acetone and dimethyl sulfoxide to obtain concentrated stock solutions. […] The stock solutions obtained were diluted with a 99.9:0.1 mixture of water and Tween® 155 surfactant to obtain application solutions of known concentration. The solutions containing the highest concentration to be tested were prepared by diluting 2 mL aliquots of the stock solution with 15 mL of the mixture and lower concentrations were prepared by serial dilution of the stock solution. A 2.5 mL aliquot of each solution of known concentration was sprayed evenly onto the soil surface (113 sq. cm) of each seeded pot using a Cornwall 5.0 mL glass syringe fitted with a TeeJet TN-3 hollow cone nozzle to obtain thorough coverage of the soil in each pot. Control pots were sprayed in the same manner with the aqueous mixture. The treated pots and control pots were placed in a greenhouse maintained with an approximate 15 hr photoperiod and temperatures of about 23-29° C. during the day and 22-28° C. during the night. Nutrients and water were added on a regular basis and supplemental lighting was provided with overhead metal halide 1000-Watt lamps as necessary. The water was added by top-irrigation.

[2] = tested on: Giant Foxtail (Setaria faberi); assay: Preemergence herbicidal activity, soil spray; assay type: in vivo; settings: Setaria faberi, pre-emergence, 504 h, Table 5, visual score after 3 weeks, read-out: Pre-emergent % control SETFA
From the text: as §1

[3] = tested on: Crabgrass(large) (Digitaria sanguinalis); assay: Preemergence herbicidal activity, soil spray; assay type: in vivo; settings: Digitaria sanguinalis, pre-emergence, 504 h, Table 5, visual score after 3 weeks, read-out: Pre-emergent % control DIGSA
From the text: as §1

[4] = tested on: Lambsquarter (Chenopodium album); assay: Preemergence herbicidal activity, soil spray; assay type: in vivo; settings: Chenopodium album, pre-emergence, 504 h; Table 5; rate 560 ppm; visual score after 3 weeks, 100 complete kill or no germination; read-out: Pre-emergent % control CHEAL
From the text: as §1

[5] = tested on: Barnyardgrass (Echinochloa crus-galli); assay: Postemergence herbicidal activity, greenhouse spray; assay type: in vivo; settings: Echinochloa crus-galli, post-emergence, 336 h, visual score after 2 weeks, read-out: Post-emergent % control ECHCG; for pest or weed control at 250 ppm: rate 250 ppm; for pest or weed control at 500 ppm: rate 500 ppm; for pest or weed control at 125 ppm: rate 125 ppm
Method: (§2) When required to ensure good germination and healthy plants, a fungicide treatment and/or other chemical or physical treatment was applied. The plants were grown for 7-21 days in a greenhouse with an approximate 15 hr photoperiod which was maintained at about 23-29° C. during the day and 22-28° C. during the night. Nutrients and water were added on a regular basis and supplemental lighting was provided with overhead metal halide 1000-Watt lamps as necessary. The plants were employed for testing when they reached the first or second true leaf stage. A weighed amount, determined by the highest rate to be tested, of each test compound was placed in a 20 mL glass vial and was dissolved in 4 mL of a 97:3 v/v (volume/volume) mixture of acetone and dimethyl sulfoxide (DMSO) to obtain concentrated stock solutions. […] The concentrated stock solutions obtained were diluted with an aqueous mixture containing acetone, water, isopropyl alcohol, DMSO, At plus 411 F crop oil concentrate, and Triton X-155 surfactant in a 48.5:39:10:1.5:1.0:0.02 v/v ratio to obtain spray solutions of known concentration. The solutions containing the highest concentration to be tested were prepared by diluting 2 mL aliquots of the stock solution with 13 mL of the mixture and lower concentrations were prepared by serial dilution of the stock solution. Approximately 1.5 mL aliquots of each solution of known concentration were sprayed evenly onto each of the test plant pots using a DeVilbiss atomizer driven by compressed air pressure of 2 to 4 psi (140 to 280 kiloPascals) to obtain thorough coverage of each plant. Control plants were sprayed in the same manner with the aqueous mixture. […] The treated plants and control plants were placed in a greenhouse as described above and watered by sub-irrigation to prevent wash-off of the test compounds.

[6] = tested on: Lambsquarter (Chenopodium album); assay: as above; assay type: in vivo; settings: Chenopodium album, post-emergence, 336 h, visual score after 2 weeks, read-out: Post-emergent % control CHEAL; for pest or weed control at 250 ppm: rate 250 ppm; for pest or weed control at 500 ppm: rate 500 ppm; for pest or weed control at 125 ppm: rate 125 ppm
Method: as §2

[7] = tested on: Yellow nutsedge (Cyperus esculentus); assay: as above; assay type: in vivo; settings: Cyperus, post-emergence, 336 h, visual score after 2 weeks, read-out: Post-emergent % control CYPES; for pest or weed control at 250 ppm: rate 250 ppm; for pest or weed control at 500 ppm: rate 500 ppm; for pest or weed control at 125 ppm: rate 125 ppm
Method: as §2

[8] = tested on: Cocklebur (Xanthium strumarium); assay: as above; assay type: in vivo; settings: Xanthium strumarium, post-emergence, 336 h, visual score after 2 weeks, read-out: Post-emergent % control XANST; for pest or weed control at 250 ppm: rate 250 ppm; for pest or weed control at 500 ppm: rate 500 ppm, 0 no injury, 100 complete kill; for pest or weed control at 125 ppm: rate 125 ppm
Method: as §2

Work on `CCc1ccc(-c2cc(N)c(Cl)c(C(=O)OC)n2)cc1` [Compound 30, Methyl 4-amino-3-chloro-6-(4-ethylphenyl)pyridine-2-carboxylate] yielded a pest or weed control at 560 ppm ([1]; rate 560 ppm) of 100%, a pest or weed control at 560 ppm ([2]; rate 560 ppm) of 70% and a pest or weed control at 560 ppm ([3]; rate 560 ppm) of 100%. For the same molecule, the pest or weed control at 560 ppm [4] was 90% and the melting point was 119 °C.
Work on `COC(=O)c1nc(-c2ccc3c(c2)CCO3)c(F)c(N)c1Cl` [Compound 85, Methyl 4-amino-3-chloro-5-fluoro-6-(2,3-dihydro-5-benzofuranyl)pyridine-2-carboxylate] yielded a pest or weed control at 250 ppm ([5]; Table 1) of 99%, a pest or weed control at 250 ppm ([6]; Table 1) of 100% and a pest or weed control at 250 ppm ([7]; Table 1) of 70%. For the same molecule, the pest or weed control at 250 ppm ([8]; Table 1) was 100% and the melting point was 120 °C.
`COC(=O)c1nc(-c2ccc(C(F)(F)F)cc2)c(F)c(N)c1F` [Compound 94, Methyl 4-amino-3,5-difluoro-6-[4-(trifluoromethyl)phenyl]pyridine-2-carboxylate] gave a pest or weed control at 500 ppm ([5]; Table 1) of 90%, a pest or weed control at 500 ppm ([6]; Table 1) of 100% and a pest or weed control at 500 ppm ([7]; Table 1) of 90%. It also gave a pest or weed control at 500 ppm ([8]; Table 1) of 100% and a melting point of 177 to 178 °C.
`COC(=O)c1nc(-c2ccc3c(c2)OCO3)c(F)c(N)c1F` [Compound 95, Methyl 4-amino-3,5-difluoro-6-(3,4-methylenedioxyphenyl)pyridine-2-carboxylate] showed a pest or weed control at 125 ppm ([5]; Table 1) of 70%, a pest or weed control at 125 ppm ([6]; Table 1) of 90% and a pest or weed control at 125 ppm ([7]; Table 1) of 60%. It also gave a pest or weed control at 125 ppm ([8]; Table 1) of 80% and a melting point of 189 to 190 °C.
Molecule `COC(=O)c1nc(-c2ccc(Cl)cn2)cc(N)c1Cl` [Compound 111, Methyl 4-amino-3-chloro-6-(5-chloro-2-pyridyl)pyridine-2-carboxylate] has a pest or weed control at 250 ppm ([5]; Table 1) of 70%, a pest or weed control at 250 ppm ([6]; Table 1) of 100% and a pest or weed control at 250 ppm ([7]; Table 1) of 80%. It also gave a pest or weed control at 250 ppm ([8]; Table 1) of 100% and a melting point of 145 to 150 °C.
For `Nc1cc(-c2ccc(F)cc2Cl)nc(C(=O)O)c1Cl` [Compound 170, 4-Amino-3-chloro-6-(2-chloro-4-fluorophenyl)pyridine-2-carboxylic acid], the pest or weed control at 500 ppm ([5]; Table 1) was 80%, the pest or weed control at 500 ppm ([6]; Table 1) was 100% and the pest or weed control at 500 ppm ([7]; Table 1) was 70%. The pest or weed control at 500 ppm ([8]; Table 1) was 100% and the melting point was 156 to 157 °C.
Molecule `Nc1c(F)c(-c2ccc(Cl)cc2Cl)nc(C(=O)O)c1Cl` [Compound 199, 4-Amino-3-chloro-5-fluoro-6-(2,4-dichlorophenyl)pyridine-2-carboxylic acid] has a pest or weed control at 250 ppm ([5]; Table 1) of 85%, a pest or weed control at 125 ppm ([5]; Table 2) of 80% and a pest or weed control at 250 ppm ([6]; Table 1) of 100%. It also gave a pest or weed control at 125 ppm ([6]; Table 2) of 100%, a pest or weed control at 250 ppm ([7]; Table 1) of 95% and a pest or weed control at 125 ppm ([7]; Table 2) of 90%. It also gave a pest or weed control at 250 ppm ([8]; Table 1) of 100%, a pest or weed control at 125 ppm ([8]; Table 2) of 100% and a melting point of 152 °C.
Work on `Nc1c(F)c(C(=O)O)nc(-c2ccc(Cl)cc2F)c1F` [Compound 206, 4-Amino-3,5-difluoro-6-(4-chloro-2-fluorophenyl)pyridine-2-carboxylic acid] yielded a pest or weed control at 500 ppm ([5]; Table 1) of 85%, a pest or weed control at 500 ppm ([6]; Table 1) of 95% and a pest or weed control at 500 ppm ([7]; Table 1) of 70%. It also gave a pest or weed control at 500 ppm ([8]; Table 1) of 99% and a melting point of 155 to 156 °C.
For `Nc1c(F)c(C(=O)O)nc(-c2ccc3c(c2)OCO3)c1F` [Compound 207, 4-Amino-3,5-difluoro-6-(3,4-methylenedioxyphenyl)pyridine-2-carboxylic acid], the pest or weed control at 125 ppm ([5]; Table 1) was 70%, the pest or weed control at 125 ppm ([6]; Table 1) was 70% and the pest or weed control at 125 ppm ([7]; Table 1) was 40%. It also gave a pest or weed control at 125 ppm ([8]; Table 1) of 90%, a pest or weed control at 140 ppm ([1]; rate 140 ppm) of 100% and a pest or weed control at 140 ppm ([2]; rate 140 ppm) of 50%. The pest or weed control at 140 ppm ([3]; rate 140 ppm) was 95% and the melting point was 174 to 175 °C.
`Nc1cc(-c2ccc(Cl)s2)nc(C(=O)O)c1Cl` [Compound 215, 4-Amino-3-chloro-6-(5-chloro-2-thienyl)pyridine-2-carboxylic acid] gave a pest or weed control at 125 ppm ([5]; Table 1) of 70%, a pest or weed control at 125 ppm ([6]; Table 1) of 100% and a pest or weed control at 125 ppm ([7]; Table 1) of 70%. For the same molecule, the pest or weed control at 125 ppm ([8]; Table 1) was 100% and the melting point was 178 to 179 °C.
`Nc1cc(-c2cc3ccccc3o2)nc(C(=O)O)c1Cl` [Compound 219, 4-Amino-6-(2-benzofuranyl)-3-chloropyridine-2-carboxylic acid] gave a pest or weed control at 250 ppm ([5]; Table 1) of 80%, a pest or weed control at 250 ppm ([6]; Table 1) of 100% and a pest or weed control at 250 ppm ([7]; Table 1) of 0%. For the same molecule, the pest or weed control at 250 ppm ([8]; Table 1) was 100% and the melting point was 151 °C.
With `Nc1cc(-c2cc3ccccc3s2)nc(C(=O)O)c1Cl` [Compound 224, 4-Amino-3-chloro-6-(2-benzothienyl)pyridine-2-carboxylic acid] the pest or weed control at 125 ppm ([5]; Table 1) was 85%, the pest or weed control at 125 ppm ([6]; Table 1) was 100% and the pest or weed control at 125 ppm ([7]; Table 1) was 30%. It also gave a pest or weed control at 125 ppm ([8]; Table 1) of 100% and a melting point of 176 °C.
With `Nc1cc(-c2ccc(Cl)nc2)nc(C(=O)O)c1Cl` [Compound 225, 4-Amino-3-chloro-6-(6-chloro-3-pyridinyl)pyridine-2-carboxylic acid] the pest or weed control at 125 ppm ([5]; Table 1) was 40%, the pest or weed control at 125 ppm ([6]; Table 1) was 70% and the pest or weed control at 125 ppm ([7]; Table 1) was 60%. It also gave a pest or weed control at 125 ppm ([8]; Table 1) of 90% and a melting point of 110 to 114 °C.
